# Key:
# [1] = target: T1, von Hippel-Lindau disease tumor suppressor/Bromodomain-containing protein 4 (Homo sapiens, UniProt O60885+P40337); experiment: PROTAC activity at VHL/BRD4 in HEK293 cells assessed as induction of BRD4 degradation by measuring maximal efficacy incubated for 24 hrs by HTRF assay relative to control; type: cell-based
# [2] = target: T1, von Hippel-Lindau disease tumor suppressor/Bromodomain-containing protein 4; experiment: PROTAC activity at VHL/BRD4 in HEK293 cells assessed as induction of BRD4 degradation incubated for 24 hrs by HTRF assay; type: cell-based
# [3] = Chromatographic hydrophobicity index, logD of the compound at pH 7.4; type: physicochemical; details: buffer
# [4] = target: T2, Protein cereblon/Bromodomain-containing protein 4/DNA damage-binding protein 1 (Homo sapiens) (UniProt O60885+Q96SW2+Q16531); experiment: Binding affinity to biotinylated CRBN/DDB1/N-terminal GST-tagged BRD4-BD1 (unknown origin) assessed as ternary complex formation (KTF) by HTRF assay; type: protein assay
# Protein cereblon [5] = target: T3, Protein cereblon (Homo sapiens, UniProt Q96SW2); experiment: Binding affinity to NanoLuc-fused CRBN (unknown origin) transfected in live HEK293 cells using NanoGlo as substrate incubated for 2 hrs by NanoBRET assay; type: cell-based
# Protein cereblon [6] = target: T3, Protein cereblon; experiment: Binding affinity to NanoLuc-fused CRBN (unknown origin) transfected in permeabilized HEK293 cells using NanoGlo as substrate incubated for 2 hrs by NanoBRET assay; type: cell-based
# [7] = target: T2, Protein cereblon/Bromodomain-containing protein 4/DNA damage-binding protein 1 (Homo sapiens); experiment: Binding affinity to biotinylated CRBN/DDB1/N-terminal GST-tagged BRD4-BD1(unknown origin) assessed as ternary complex formation (AUC) by HTRF assay; type: protein assay
# [8] = target: T4, Protein cereblon/Bromodomain-containing protein 4 (Homo sapiens, UniProt O60885+Q96SW2); experiment: PROTAC activity at CRBN/BRD4 in HEK293 cells assessed as induction of BRD4 degradation by measuring maximal efficacy incubated for 24 hrs by HTRF assay relative to control; type: cell-based
# [9] = target: Bromodomain-containing protein 4 (Homo sapiens, UniProt O60885); experiment: Binding affinity to N-terminal GST-tagged BRD4-BD1 (unknown origin) using biotinylated histon4 peptide as substrate incubated for 30 mins by HTRF assay
# [10] = target: T4, Protein cereblon/Bromodomain-containing protein 4; experiment: PROTAC activity at CRBN/BRD4 in HEK293 cells assessed as induction of BRD4 degradation incubated for 24 hrs by HTRF assay; type: cell-based
# Homo sapiens = species: Homo sapiens; experiment: Selectivity ratio of IC50 for NanoLuc-fused CRBN (unknown origin) transfected in live HEK293 cells to IC50 for NanoLuc-fused CRBN (unknown origin) transfected in permeabilized HEK293 cells; type: cell-based
# T1 sequence (P40337 whole entry, looked up, other chains not shown): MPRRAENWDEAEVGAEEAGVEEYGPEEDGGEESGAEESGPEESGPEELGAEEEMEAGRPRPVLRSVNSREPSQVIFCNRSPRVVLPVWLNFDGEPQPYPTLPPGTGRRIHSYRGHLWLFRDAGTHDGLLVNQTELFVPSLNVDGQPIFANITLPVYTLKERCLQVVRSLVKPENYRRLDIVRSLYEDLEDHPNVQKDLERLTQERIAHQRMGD
Structure (SMILES),Emax [1],DC50 [2],chromatographic logD [3],K [4],IC50 (Protein cereblon [5]),IC50 (Protein cereblon [6]),AUC [7],Emax [8],IC50 [9],DC50 [10],Ratio IC50 (Homo sapiens)
Cc1ncsc1-c1ccc(CNC(=O)[C@@H]2C[C@@H](O)CN2C(=O)[C@H](C(C)C)N2Cc3ccccc3C2=O)c(OCCCOCCCC[C@@H]2N=C(c3ccc(Cl)cc3)c3c(sc(C)c3C)-n3c(C)nnc32)c1,58%,228 nM,3.38,–,–,–,–,–,–,–,–
Cc1ncsc1-c1ccc(CNC(=O)[C@@H]2C[C@@H](O)CN2C(=O)[C@H](C(C)C)N2Cc3ccccc3C2=O)c(OCCCOCCOC(=O)C[C@@H]2N=C(c3ccc(Cl)cc3)c3c(sc(C)c3C)-n3c(C)nnc32)c1,89%,15.8 nM,3.25,–,–,–,–,–,–,–,–
Cc1ncsc1-c1ccc(CNC(=O)[C@@H]2C[C@@H](O)CN2C(=O)[C@H](C(C)C)N2Cc3ccccc3C2=O)c(OCCCOCCNCC[C@@H]2N=C(c3ccc(Cl)cc3)c3c(sc(C)c3C)-n3c(C)nnc32)c1,14%,> 11000 nM,2.3,–,–,–,–,–,–,–,–
Cc1sc2c(c1C)C(c1ccc(Cl)cc1)=N[C@@H](CCCCCNC(=O)COc1cccc3c1C(=O)N(C1CCC(=O)NC1=O)C3=O)c1nnc(C)n1-2 (stereo not given in full),–,–,2.81,29.2 nM,503 nM,121 nM,156,76%,66.9 nM,10.8 nM,4.2
Cc1sc2c(c1C)C(c1ccc(Cl)cc1)=N[C@@H](CC(=O)NCCCCNC(=O)COc1cccc3c1C(=O)N(C1CCC(=O)NC1=O)C3=O)c1nnc(C)n1-2 (stereo not given in full),–,–,2.16,9.4 nM,–,–,163,80%,–,–,–
Cc1ncsc1-c1ccc(CNC(=O)[C@@H]2C[C@@H](O)CN2C(=O)[C@H](C(C)C)N2Cc3ccccc3C2=O)c(OCCCOCCC(=O)C[C@@H]2N=C(c3ccc(Cl)cc3)c3c(sc(C)c3C)-n3c(C)nnc32)c1,79%,13.4 nM,3.16,–,–,–,–,–,–,–,–
Cc1sc2c(c1C)C(c1ccc(Cl)cc1)=N[C@@H](CCNCCCCNC(=O)COc1cccc3c1C(=O)N(C1CCC(=O)NC1=O)C3=O)c1nnc(C)n1-2 (stereo not given in full),–,–,1.66,108 nM,11300 nM,102 nM,71.5,2%,453 nM,> 11000 nM,110
Cc1ncsc1-c1ccc(CNC(=O)[C@@H]2C[C@@H](O)CN2C(=O)[C@H](C(C)C)N2Cc3ccccc3C2=O)c(OCCCOCCNC(=O)C[C@@H]2N=C(c3ccc(Cl)cc3)c3c(sc(C)c3C)-n3c(C)nnc32)c1,87%,68.3 nM,2.78,–,–,–,–,–,–,–,–
Cc1sc2c(c1C)C(c1ccc(Cl)cc1)=N[C@@H](CC(=O)CCCCNC(=O)COc1cccc3c1C(=O)N(C1CCC(=O)NC1=O)C3=O)c1nnc(C)n1-2 (stereo not given in full),–,–,2.57,6.7 nM,422 nM,107 nM,251,85%,24.2 nM,9.2 nM,3.9
Cc1sc2c(c1C)C(c1ccc(Cl)cc1)=N[C@@H](CC(=O)OCCCCNC(=O)COc1cccc3c1C(=O)N(C1CCC(=O)NC1=O)C3=O)c1nnc(C)n1-2 (stereo not given in full),–,–,2.68,5 nM,264 nM,68.8 nM,158,83%,2.3 nM,5.4 nM,2.4
